# Data reported in patent US12129221B2, “Difluoro phenyl amide RIP1 inhibitor” (SIRONAX LTD, priority 2018, dated 2024).
# “Also recorded” adds a separate entry of the source.
# Tests used:
# [1] = PK in dog; conditions: in vivo
# [2] = Liver microsome stability, mini-pig; type: in vitro ADME; design: key to mini-pig T1/2 (min): +, Extrapolated; conditions: extrapolated
# Description: (§1) Representative Metabolic Stability Data I; +, Extrapolated.
# [3] = Liver microsome stability, dog; type: in vitro ADME; conditions: dog, liver microsomes
# Description: as §1
# [4] = Liver microsome stability, monkey; type: in vitro ADME; conditions: monkey, liver microsomes
# Description: as §1
# [5] = tested on: TNF-α-induced SIRS in mice; assay: Mouse SIRS model (TNF-α-induced mortality); type: in vivo, C57BI/6J mice; conditions: TNF-α intravenously 2 minutes after
# Procedure: Effect on Mouse SIRS Model Sepsis preceded by systemic inflammatory response syndrome (SIRS), is a major cause of death in critically ill patients. TNF-α functions as a key mediator in SIRS pathogenesis by the induction of RIP1-RIP3 mediated necroptosis of the liver.
# SIR1-365 was administrated as a single dose by oral gavage at 3 different doses: 1, 3, and 10 mg/kg to C57BI/6J mice. TNF-α was delivered intravenously 2 minutes after SIR1-365 administration. 87.5% (7 of 8) mice in the control group (given vehicle) died within 36 hours, whereas 50% (4 of 8) mice given SIR1-365 at 1 mg/kg and 25% (2 of 8) mice given SIR1-365 at 3 mg/kg died in the same period.
# [6] = PK in rat; design: species or system SD rat; conditions: Sprague-Dawley, in vivo; for half-life / bioavailability: rat
# Description: Representative PK Date of Pro-Drug Compounds
# [7] = tested on: ferroptosis; assay: Ferroptosis inhibitor activity; type: cell-based; conditions: 1 uM threshold activity extrapolated
# Description: Ferroptosis Inhibitor Activity 1 Um Threshold Activity Extrapolated
# [8] = tested on: mouse EAE model of multiple sclerosis; assay: Mouse EAE model of multiple sclerosis; type: in vivo, C57/BL6 mice
# Description: A mouse EAE model of multiple sclerosis was established by immunizing C57/BL6 mice with MOG35-55 (amino acids 35-55 of myelin oligodendrocyte glycoprotein) to induce autoimmune reaction to the myelin of the CNS. Immune reaction causes damage to the myelin, and subsequently the neurons, resulting in animal paralysis.
# SIR1-365 was delivered by food at 10 g/kg and FTY-720 was used as a positive control. Mice were feed with FTY-720 containing drinking water or with SIR1-365 containing chow 2 days before 1st immunization for 28 consecutive days. Scoring started at Day 8 post-1st immunization.
# The results of pathological studies indicated myelin destruction of the spinal cord was protected by SIR1-365. Three different spinal cord regions were sectioned and stained with hematoxylin and eosin (H&E), spinal cord damages were scored and quantified. Feeding with SIR1-365 containing food protected spinal cord damage induced by auto-immune reaction in EAE model.
# [9] = PK in monkey; conditions: in vivo
# [10] = tested on: HT-29; assay: EC50 in HT-29; type: cell-based; conditions: Homo sapiens
# [11] = Hepatocyte stability, dog; type: in vitro ADME; conditions: dog, hepatocytes, read-out: Dog T1/2
# Description: (§2) Representative Metabolic Stability Data II, +, Extrapolated.
# [12] = Hepatocyte stability, mouse; type: in vitro ADME; conditions: mouse, hepatocytes, read-out: Mouse T1/2
# Description: as §2
# [13] = Hepatocyte stability, rat; type: in vitro ADME; conditions: rat, hepatocytes, read-out: Rat T1/2
# Description: as §2
# [14] = Liver microsome stability, mouse; type: in vitro ADME; conditions: liver microsomes
# Description: as §1
# [15] = Hepatocyte stability, mini-pig; type: in vitro ADME; conditions: minipig, hepatocytes, read-out: mini-pig T1/2
# Description: as §2
# [16] = po, 60 mg/kg, SD rat, dose 60 mg/Kg micropower
# [17] = Hepatocyte Stability, comparison table
smiles,measurement,setting,value
"CCC(C)(C)C(=O)N(O)Cc1cc(F)cc(F)c1 [Compound 13, N-(3,5-difluorobenzyl)-N-hydroxy-2,2-dimethylbutanamide]",AUC(0-inf),[1]; IV 2 mg/kg,1840 ng·h/mL
same,clearance,[1]; IV 2 mg/kg,18.5 mL/min/kg
same,half-life,[1]; IV 2 mg/kg,61.2 min
same,Vd,"[1]; IV 2 mg/kg, read-out: Vdss",0.73 L/kg
same,AUC(0-inf),[1]; PO 10 mg/kg,1320 ng·h/mL
same,Cmax,[1]; PO 10 mg/kg,981 ng/mL
same,bioavailability,[1]; PO 10 mg/kg,14.9%
same,half-life,[1]; PO 10 mg/kg,429 min
same,AUC(0-inf),[1]; PO 60 mg/kg,2050 ng·h/mL
same,Cmax,[1]; PO 60 mg/kg,938 ng/mL
same,bioavailability,[1]; PO 60 mg/kg,4.06%
same,half-life,[1]; PO 60 mg/kg,339 min
same,AUC(0-inf),[1]; PO 150 mg/kg,7230 ng·h/mL
same,Cmax,[1]; PO 150 mg/kg,2440 ng/mL
same,bioavailability,[1]; PO 150 mg/kg,5.33%
same,half-life,[1]; PO 150 mg/kg,714 min
same,mini-pig T1/2 (min),[2],+
same,half-life,"[3]; comparison table with WO2016/101885 compounds, read-out: Dog Liver Microsome T1/2",2 min
same,half-life,"[3]; liver microsome stability, read-out: Dog T1/2",2.34 min
same,half-life,"[4]; comparison table with WO2016/101885 compounds, read-out: Monkey Liver Microsome T1/2",5 min
same,half-life,"[4]; liver microsome stability, read-out: Monkey T1/2",4.72 min
same,mice died within 36 hours,[5]; single oral gavage dose 1 mg/kg,50%
same,mice died within 36 hours,[5]; single oral gavage dose 3 mg/kg,25%
same,mortality caused by SIRS,"[5]; single oral gavage dose 10 mg/kg, listed as SIR1-365",completely prevented mortality; also recorded: complete prevention
same,AUC(0-inf),"[6]; Rat, IV 2 mg/kg",540 ng·h/mL
same,clearance,"[6]; Rat, IV 2 mg/kg",61.7 mL/min/kg
same,Vd,"[6]; Rat, IV 2 mg/kg, read-out: Vdss",1.9 L/kg
same,AUC(0-inf),"[6]; Rat, PO 20 mg/kg",1580 ng·h/mL
same,Cmax,"[6]; Rat, PO 20 mg/kg",1570 ng/mL
same,AUC(0-inf),"[6]; Rat, PO 60 mg/kg",7520 ng·h/mL
same,Cmax,"[6]; Rat, PO 60 mg/kg",4910 ng/mL
same,AUC,"[6]; SD rat, PO, dose 60 mg/Kg micropower",7520 ng·h/mL
same,half-life,"[6]; iv, 2 mg/kg, IV 2 mg/kg",35.4 min
same,bioavailability,"[6]; po, 20 mg/kg, PO 20 mg/kg",39.4%
same,half-life,"[6]; po, 20 mg/kg, PO 20 mg/kg",84 min
same,bioavailability,"[6]; po, 60 mg/kg, PO 60 mg/kg",62.8%
same,half-life,"[6]; po, 60 mg/kg, PO 60 mg/kg",72 min
same,bioavailability,[6]; [16],62.8%
same,half-life,[6]; [16],70.2 min
same,EC50,[7],1000 to 10000 nM
same,EAE-induced myelin / spinal cord damage and animal paralysis,"[8]; 10 g of compound per kilogram food, H&E stained spinal cord sections, listed as SIR1-365",significantly reduced EAE-induced myelin damage and animal paralysis; also recorded: substantial reduction of myelin damage
same,disease score in EAE mice,"[8]; delivered by food at 10 g/kg, 28 consecutive days",significantly reduced the disease score
same,AUC(0-inf),[9]; IV 2 mg/kg,1760 ng·h/mL
same,clearance,[9]; IV 2 mg/kg,19.3 mL/min/kg
same,half-life,[9]; IV 2 mg/kg,672 min
same,Vd,"[9]; IV 2 mg/kg, read-out: Vdss",0.93 L/kg
same,AUC(0-inf),[9]; PO 30 mg/kg,6930 ng·h/mL
same,Cmax,[9]; PO 30 mg/kg,3730 ng/mL
same,bioavailability,[9]; PO 30 mg/kg,26.3%
same,half-life,[9]; PO 30 mg/kg,90 min
same,AUC(0-inf),[9]; PO 100 mg/kg,41600 ng·h/mL
same,Cmax,[9]; PO 100 mg/kg,10700 ng/mL
same,bioavailability,[9]; PO 100 mg/kg,47.5%
same,half-life,[9]; PO 100 mg/kg,106 min
same,AUC(0-inf),[9]; PO 200 mg/kg,87200 ng·h/mL
same,Cmax,[9]; PO 200 mg/kg,20600 ng/mL
same,bioavailability,[9]; PO 200 mg/kg,49.5%
same,half-life,[9]; PO 200 mg/kg,130 min
same,EC50,[10],28 nM
same,half-life,[11]; [17],13 min
same,half-life,[11]; Hepatocyte stability,12.8 min
same,half-life,[12]; [17],20 min
same,half-life,[12]; Hepatocyte stability,20.1 min
same,half-life,[13]; [17],28 min
same,half-life,[13]; Hepatocyte stability,28 min
same,half-life,"[14]; comparison table with WO2016/101885 compounds, read-out: Mouse Liver Microsome T1/2",17 min
same,half-life,"[14]; liver microsome stability, read-out: Mouse T1/2",17.1 min
same,half-life,[15],21.2 min
